Source: the NIST ThermoML archive (doi:10.1016/j.jct.2012.06.031)

Assay: xn = mol fraction of the nth substance listed
Conditions: 101 kPa, Liquid; for viscosity: Concentric cylinders viscometry; for mass density: Vibrating tube method

c1ccncc1 [pyridine] + OCC(O)CO
Conditions	mass density [kg/m3]	viscosity [mPa·s]
288.15 K, x1 = 0.1	1237.23	1518
288.15 K, x1 = 0.2001	1209.17	853.01
288.15 K, x1 = 0.3001	1182.56	438.65
288.15 K, x1 = 0.4	1156.91	202.46
288.15 K, x1 = 0.4998	1130.25	86.64
288.15 K, x1 = 0.6001	1103.35	29.67
288.15 K, x1 = 0.6999	1075.51	7.871
288.15 K, x1 = 0.8001	1047.04	4.241
288.15 K, x1 = 0.8999	1018	1.944
288.15 K, x1 = 1	988.061	1.03
293.15 K, x1 = 0.1	1233.99	946.3
293.15 K, x1 = 0.2001	1205.75	539.76
293.15 K, x1 = 0.3001	1178.91	283.85
293.15 K, x1 = 0.4	1153.16	135.63
293.15 K, x1 = 0.4998	1126.26	60.5
293.15 K, x1 = 0.6001	1099.12	22.37
293.15 K, x1 = 0.6999	1071.23	6.966
293.15 K, x1 = 0.8001	1042.41	3.639
293.15 K, x1 = 0.8999	1013.18	1.748
293.15 K, x1 = 1	983.038	0.9588
298.15 K, x1 = 0.1	1230.73	608.94
298.15 K, x1 = 0.2001	1202.25	352.75
298.15 K, x1 = 0.3001	1175.23	189.75
298.15 K, x1 = 0.4	1149.36	93.82
298.15 K, x1 = 0.4998	1122.23	43.51
298.15 K, x1 = 0.6001	1094.86	17.25
298.15 K, x1 = 0.6999	1066.63	6.111
298.15 K, x1 = 0.8001	1037.6	3.155
298.15 K, x1 = 0.8999	1008.34	–
298.15 K, x1 = 1	978.006	0.8943
303.15 K, x1 = 0.1	1227.44	403.56
303.15 K, x1 = 0.2001	1198.74	237.3
303.15 K, x1 = 0.3001	1171.52	130.53
303.15 K, x1 = 0.4	1145.49	66.75
303.15 K, x1 = 0.4998	1118.17	32.21
303.15 K, x1 = 0.6001	1090.58	13.57
303.15 K, x1 = 0.6999	1062.16	5.257
303.15 K, x1 = 0.8001	1033.11	2.765
303.15 K, x1 = 0.8999	1003.49	1.439
303.15 K, x1 = 1	972.967	0.8355
308.15 K, x1 = 0.1	1224.12	275.49
308.15 K, x1 = 0.2001	1195.32	164.23
308.15 K, x1 = 0.3001	1167.95	92.29
308.15 K, x1 = 0.4	1141.6	48.72
308.15 K, x1 = 0.4998	1114.07	24.45
308.15 K, x1 = 0.6001	1086.27	10.87
308.15 K, x1 = 0.6999	1057.66	4.532
308.15 K, x1 = 0.8001	1028.43	2.441
308.15 K, x1 = 0.8999	998.628	1.316
308.15 K, x1 = 1	967.913	0.7837
313.15 K, x1 = 0.1	1220.77	192.54
313.15 K, x1 = 0.2001	1191.92	116.47
313.15 K, x1 = 0.3001	1164.44	66.86
313.15 K, x1 = 0.4	1137.67	36.35
313.15 K, x1 = 0.4998	1109.95	18.9
313.15 K, x1 = 0.6001	1081.93	8.841
313.15 K, x1 = 0.6999	1053.14	3.95
313.15 K, x1 = 0.8001	1023.73	2.172
313.15 K, x1 = 0.8999	993.746	1.209
313.15 K, x1 = 1	962.849	0.7354
318.15 K, x1 = 0.1	1217.48	137.7
318.15 K, x1 = 0.2001	1188.63	84.41
318.15 K, x1 = 0.3001	1160.93	49.31
318.15 K, x1 = 0.4	1133.7	27.66
318.15 K, x1 = 0.4998	1105.79	14.88
318.15 K, x1 = 0.6001	1077.57	7.298
318.15 K, x1 = 0.6999	1048.59	3.463
318.15 K, x1 = 0.8001	1019	1.944
318.15 K, x1 = 0.8999	988.846	1.114
318.15 K, x1 = 1	957.769	0.6912
323.15 K, x1 = 0.1	1214.26	101.38
323.15 K, x1 = 0.2001	1185.34	63.12
323.15 K, x1 = 0.3001	1157.38	38.06
323.15 K, x1 = 0.4	1129.71	21.58
323.15 K, x1 = 0.4998	1101.59	12.04
323.15 K, x1 = 0.6001	1073.01	6.153
323.15 K, x1 = 0.6999	1044.02	3.06
323.15 K, x1 = 0.8001	1014.26	1.769
323.15 K, x1 = 0.8999	983.927	1.038
323.15 K, x1 = 1	952.673	0.6507
